Experimental data: PubChem BioAssay (NCI)
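GI50 = concentration required for 50% inhibition of growth. At the TGI there is no net growth.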

What was measured:
Test in all cases: NCI anticancer screen, dose series, 384-well format
SF-539 CNS = system: SF-539 CNS
U251 glioblastoma = system: U251 glioblastoma
OVCAR-5 ovarian = system: OVCAR-5 ovarian
NCI-H460 NSCLC = system: NCI-H460 NSCLC
MALME-3M melanoma = system: MALME-3M melanoma
TK-10 renal = system: TK-10 renal
SW-620 colon = system: SW-620 colon
A498 renal = system: A498 renal
K-562 leukemia = system: K-562 leukemia
HL-60(TB) leukemia = system: HL-60(TB) leukemia
RXF 393 renal = system: RXF 393 renal
SK-OV-3 ovarian = system: SK-OV-3 ovarian
A549 NSCLC = system: A549 NSCLC

Cn1cc(CNCC2CCN(c3ncc(C(=O)NO)cn3)CC2)c2ccccc21 showed a GI50 (SF-539 CNS) of 13.9 nM, a TGI (SF-539 CNS) of 53 nM and a GI50 (U251 glioblastoma) of 11.3 nM. For the same compound, the TGI (U251 glioblastoma) was 24.1 nM, the GI50 (OVCAR-5 ovarian) was < 10 nM and the TGI (OVCAR-5 ovarian) was 23.6 nM. For the same compound, the GI50 (NCI-H460 NSCLC) was < 11.1 nM, the TGI (NCI-H460 NSCLC) was 37.1 nM and the GI50 (MALME-3M melanoma) was < 10 nM. For the same compound, the TGI (MALME-3M melanoma) was < 14.5 nM, the GI50 (TK-10 renal) was 12.2 nM and the TGI (TK-10 renal) was 38.3 nM. The GI50 (SW-620 colon) was 12.9 nM, the TGI (SW-620 colon) was 26.2 nM and the GI50 (A498 renal) was 12.8 nM. The TGI (A498 renal) was 29.3 nM, the GI50 (K-562 leukemia) was < 10.5 nM and the TGI (K-562 leukemia) was 22.6 nM. For the same compound, the GI50 (HL-60(TB) leukemia) was < 10 nM, the TGI (HL-60(TB) leukemia) was < 10 nM and the GI50 (RXF 393 renal) was 16.2 nM. The TGI (RXF 393 renal) was 35.5 nM, the GI50 (SK-OV-3 ovarian) was 15.5 nM and the TGI (SK-OV-3 ovarian) was 32.9 nM. It also gave a GI50 (A549 NSCLC) of 11.9 nM and a TGI (A549 NSCLC) of 32.1 nM.
